From article PMC11783601, “Analogue-Sensitive Inhibition of Histone Demethylases Uncovers Member-Specific Function in Ribosomal Protein Synthesis” (Journal of the American Chemical Society, 2025)
Entries after “also recorded” stand apart in the source; their conditions may differ. One block for each compound: values may come before it.

Tests used:
[1] = tested on: nascent protein synthesis in HEK293T cells; experiment: BONCAT: azidohomoalanine incorporation, TAMRA alkyne click, in-gel fluorescence; assay type: cell-based, human
Text: Biochemical integrity and robust orthogonality of asKDM4-NOL pairs in cells strongly argue for their applicability in elucidating the regulatory functions of KDM4 members in cellular processes. […] To investigate the role of KDM4A in protein synthesis, we adapted the bioorthogonal noncanonical amino acid tagging (BONCAT) tactic which relies on the translational incorporation of an unnatural amino acid probe into newly synthesized proteins in cells (Figure 5A).[28] HEK293T cells expressing wild type KDM4A or its F185A mutant were treated with n-octyl IOX1 or 6A, and the synthesis of nascent proteins was tracked by pulsing the cells with azidohomoalanine (AHA). Isolated cellular extracts were subjected to copper-catalyzed click ligation with TAMRA alkyne,[50] separated on polyacrylamide gel and visualized at 532 nm light (lmax for TAMRA) to assess AHA incorporation. Overexpression of wild type KDM4A and the as variant (F185A) increased the amount of newly synthesized proteins compared to control vector-transfected cells (Figure 5B). […]
Millipore Ltd.) membrane was cut to size, activated with MeOH for 30 seconds and incubated in 10X SSC buffer for 5 minutes while shaking. The membrane was then placed on a 96-well Bio-Dot microfiltration apparatus (Bio-Rad), washed with 100µL of 10X SSC buffer and the RNA solution was applied, and vacuum filtered. Sample was then rinsed with 100µL of 10X SSC buffer.
The membrane was dried at 37 °C followed by crosslinking for 5 minutes with UV light at 254nm.
Membrane was then subject to the protocol mentioned in the section General Protocol for Western […]
16. Incorporation of Azidohomoalanine in HEK293T cells
HEK293T cells were passaged into a 6 well plate. The cells were grown overnight then transfected with 3 ug of indicated plasmid, KDM4A WT/F185A or KDM4D WT/F189A expression vector, […]
and 6 ug of Thermo Turbofect (FERR0531). KDM4A siRNA was transfected into cells using 10nM siRNA (Thermo 4392420) with 1:2 ug amount of Thermo Turbofect (FERR0531). Cells were washed 4 hours later and fresh DMEM was applied. The next day, the cells were treated with inhibitor (L-leucine NOG) and grown for 24 hours. […] The lysate was quantified with Bradford dye and 40 ug of lysate was incubated with 1 mM Tris[(1-benzyl-1H-1,2,3-triazol-4-yl)methyl]amine (TBTA […]
For analysis of AHA incorporation measured by fixed cell imaging, HEK293-T cells (ATCC CRL-1573) were grown in a 24 well plate (Corning) on poly-D-lysine (Gibco A3890401) treated glass coverslips (ThermoScientific 12-545-81P) overnight and transfected the next day with 500 ng KDM4A WT/F185A or Empty Vector (EV) equivalent using 1:2 ug of Thermo Turbofect (FERR0531). […]

HEK293T cells = experiment: Cell permeability and hydrolysis to 6, LC-HRMS of cell extracts; assay type: in vitro ADME, human; details: 200 µM, 24 hours, LC-HRMS total ion counts
Text: We next examined the orthogonal pairs for their ability to modulate lysine demethylation on the chromosomal histone in cultured human cells (Figure 4A). To this end, we generated the F185A mutation in full-length KDM4A carrying all of the functional domains. Furthermore, to enhance cell permeability, we synthesized two chemoselective ester prodrugs 6A and 6B carrying either an n-octyl or a trifluoromethyl benzyl ester as the lipophilic moiety, respectively (Figures 4A, S5, and S6, Scheme S3).[46],[47] We confirmed the cell permeability of 6A and 6B and their subsequent hydrolysis to 6 by analyzing extracts of compound-treated HEK293T cells using LC-HRMS. […]
12. Examining cell permeability and toxicity of 6A and 6B
In a T-25 cell culture flask, HEK293T cells were treated with either 200 µM L-Leu octyl-ester NOG 6A, L-Leu TFMB-ester NOG 6B, or corresponding volume of DMSO. Following 24 hours of incubation at 37 °C, media was removed and 3mL of 80:20 methanol: water was added while the flasks with cells were on dry ice. The flasks were then incubated in -80 °C for 10 minutes to allow cell lysis. […] Relative de-esterification was determined by subtracting abundance of each treatment sample by the DMSO control and indicated molecular weights followed by dividing the abundance of L-Leu NOG molecular weight by the total abundance of esterified and de-esterified L-Leu 6 for each sample. […]

SMILES: CCCCCCCCOC(=O)C(=O)NC(CC(C)C)C(=O)O [6A, L-Leu octyl-ester NOG]
nascent protein synthesis (TAMRA in-gel fluorescence) ([1]; HEK293T cells expressing F185A, 6A): sharp decline in protein synthesis; also recorded: subsequently inhibited | nascent protein synthesis (TAMRA in-gel fluorescence) ([1]; HEK293T cells, endogenous wild type KDM4A, 200 μM 6A): no effect on protein synthesis; also recorded: failed to inhibit protein synthesis | membrane permeability and hydrolysis to 6 (HEK293T cells): comparable membrane permeability

membrane permeability and hydrolysis to 6 (HEK293T cells): comparable membrane permeability
SMILES: CC(C)CC(NC(=O)C(=O)OCc1cccc(C(F)(F)F)c1)C(=O)O [6B, L-Leu TFMB-ester NOG]

SMILES: CCCCCCCCOC(=O)c1ccc(O)c2ncccc12 [n-octyl IOX1]
nascent protein synthesis (TAMRA in-gel fluorescence) ([1]; HEK293T cells expressing wild type KDM4A, n-octyl IOX1): sharp decline in protein synthesis; also recorded: subsequently inhibited | nascent protein synthesis (TAMRA in-gel fluorescence) ([1]; HEK293T cells, endogenous KDM4A, 10 μM n-octyl IOX1): protein synthesis inhibition
